Test results taken from publication PMC7316778 (Nature Communications, 2020).
Values joined by “and” are separate entries in the source; they are usually repeats but may differ in a detail not shown here. Identical values can stand only once. Like-named read-outs stand apart in the source and are kept apart here.

Assays:
[1] = target: MAPK7 (ERK5) (Homo sapiens, UniProt Q13164); test: SelectScreen kinase assay
Procedure: (§1) Selectivity profiling assays were performed by the Invitrogen SelectScreen™ Services. […] The concentration of ATP was selected to be equal to the KM, unless indicated otherwise.

[2] = target: EIF2AK2 (PKR) (Homo sapiens, UniProt P19525); test: SelectScreen kinase assay
Procedure: as §1

[3] = target: LRRK2 (Homo sapiens, UniProt Q5S007); test: SelectScreen kinase assay
Procedure: as §1

[4] = target: T1, DYRK2 (Homo sapiens, UniProt Q92630); test: SelectScreen kinase assay; conditions: for Inhibition at 1 µM (%): DYRK2, LanthaScreen Binding
T1 sequence (Q92630 1-601): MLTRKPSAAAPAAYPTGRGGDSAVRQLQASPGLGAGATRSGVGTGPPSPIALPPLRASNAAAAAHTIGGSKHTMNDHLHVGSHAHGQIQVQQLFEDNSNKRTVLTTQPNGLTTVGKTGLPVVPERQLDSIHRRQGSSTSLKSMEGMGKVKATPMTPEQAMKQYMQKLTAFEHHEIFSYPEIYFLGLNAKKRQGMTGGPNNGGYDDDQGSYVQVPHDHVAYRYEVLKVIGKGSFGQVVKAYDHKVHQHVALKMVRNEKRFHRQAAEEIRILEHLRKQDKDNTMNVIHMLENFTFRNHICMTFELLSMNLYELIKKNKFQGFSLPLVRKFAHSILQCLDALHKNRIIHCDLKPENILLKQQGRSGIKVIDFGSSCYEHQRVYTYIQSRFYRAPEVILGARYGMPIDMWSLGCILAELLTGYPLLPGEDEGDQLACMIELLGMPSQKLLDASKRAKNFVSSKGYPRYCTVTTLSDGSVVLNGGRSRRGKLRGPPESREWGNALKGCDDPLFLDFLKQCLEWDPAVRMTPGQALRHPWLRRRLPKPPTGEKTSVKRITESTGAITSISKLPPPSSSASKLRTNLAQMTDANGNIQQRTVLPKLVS
Procedure: as §1

[5] = target: MARK3 (Homo sapiens, UniProt P27448); test: SelectScreen kinase assay
Procedure: as §1

[6] = target: RPS6KA1 (RSK1) (Homo sapiens, UniProt Q15418); test: SelectScreen kinase assay
Procedure: as §1

[7] = target: T2, MAP2K4 (MEK4) (Homo sapiens, UniProt P45985); test: SelectScreen kinase assay
T2 sequence (P45985 1-399): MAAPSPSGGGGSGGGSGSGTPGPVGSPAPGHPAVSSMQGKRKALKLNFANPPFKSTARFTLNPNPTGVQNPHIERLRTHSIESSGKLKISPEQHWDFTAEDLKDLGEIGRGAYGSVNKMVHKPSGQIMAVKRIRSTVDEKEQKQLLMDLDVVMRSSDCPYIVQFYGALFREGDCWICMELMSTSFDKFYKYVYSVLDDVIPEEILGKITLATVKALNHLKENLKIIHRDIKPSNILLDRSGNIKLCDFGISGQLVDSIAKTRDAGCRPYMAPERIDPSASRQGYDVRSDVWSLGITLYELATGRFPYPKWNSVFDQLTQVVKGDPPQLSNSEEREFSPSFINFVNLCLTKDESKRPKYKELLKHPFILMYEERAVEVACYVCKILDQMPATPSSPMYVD
Procedure: as §1

[8] = target: ABL1 (Homo sapiens, UniProt P00519); test: SelectScreen kinase assay
Procedure: as §1

[9] = target: MET (cMet) (Homo sapiens, UniProt P08581); test: SelectScreen kinase assay
Procedure: as §1

[10] = target: MAP4K5 (KHS1) (Homo sapiens, UniProt Q9Y4K4); test: SelectScreen kinase assay; conditions: 1 h, 1 μM WEL028, 1 h preincubation
Procedure: as §1

[11] = system: FES^S700C HL-60 cells; test: CD11b surface expression, PMA-induced macrophage differentiation; type: cell-based, human; conditions: for CD11b-positive cells (%): Figure 6d, S700C
[12] = target: T3, HUNK (Homo sapiens, UniProt P57058); test: SelectScreen kinase assay
T3 sequence (P57058 1-714): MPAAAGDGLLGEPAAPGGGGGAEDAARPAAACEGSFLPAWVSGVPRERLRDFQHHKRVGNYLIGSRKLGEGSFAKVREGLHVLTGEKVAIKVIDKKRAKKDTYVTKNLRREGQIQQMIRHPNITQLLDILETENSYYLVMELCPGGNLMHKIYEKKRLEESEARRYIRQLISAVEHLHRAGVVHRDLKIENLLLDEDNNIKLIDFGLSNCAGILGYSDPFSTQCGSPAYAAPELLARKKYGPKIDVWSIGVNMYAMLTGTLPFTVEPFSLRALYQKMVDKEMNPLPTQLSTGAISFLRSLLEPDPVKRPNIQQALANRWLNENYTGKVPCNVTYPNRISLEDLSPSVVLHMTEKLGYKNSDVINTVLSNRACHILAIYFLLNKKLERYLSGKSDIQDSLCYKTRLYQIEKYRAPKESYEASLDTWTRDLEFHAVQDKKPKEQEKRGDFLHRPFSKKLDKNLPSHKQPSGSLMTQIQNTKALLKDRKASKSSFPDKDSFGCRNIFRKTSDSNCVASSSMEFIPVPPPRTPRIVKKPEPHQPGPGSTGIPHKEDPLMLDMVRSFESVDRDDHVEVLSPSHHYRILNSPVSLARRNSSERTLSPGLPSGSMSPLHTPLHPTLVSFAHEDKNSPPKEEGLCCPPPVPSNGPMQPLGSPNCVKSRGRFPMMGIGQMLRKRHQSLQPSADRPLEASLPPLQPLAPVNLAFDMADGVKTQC
Procedure: as §1

[13] = target: NLK (Homo sapiens, UniProt Q9UBE8); test: SelectScreen kinase assay
Procedure: as §1

[14] = 1 h, 1 μM WEL028, 1 h preincubation
[15] = IC50 on that kinase divided by IC50 on FES^S700C

Chain of MAPK7 (ERK5) (Q13164 whole entry): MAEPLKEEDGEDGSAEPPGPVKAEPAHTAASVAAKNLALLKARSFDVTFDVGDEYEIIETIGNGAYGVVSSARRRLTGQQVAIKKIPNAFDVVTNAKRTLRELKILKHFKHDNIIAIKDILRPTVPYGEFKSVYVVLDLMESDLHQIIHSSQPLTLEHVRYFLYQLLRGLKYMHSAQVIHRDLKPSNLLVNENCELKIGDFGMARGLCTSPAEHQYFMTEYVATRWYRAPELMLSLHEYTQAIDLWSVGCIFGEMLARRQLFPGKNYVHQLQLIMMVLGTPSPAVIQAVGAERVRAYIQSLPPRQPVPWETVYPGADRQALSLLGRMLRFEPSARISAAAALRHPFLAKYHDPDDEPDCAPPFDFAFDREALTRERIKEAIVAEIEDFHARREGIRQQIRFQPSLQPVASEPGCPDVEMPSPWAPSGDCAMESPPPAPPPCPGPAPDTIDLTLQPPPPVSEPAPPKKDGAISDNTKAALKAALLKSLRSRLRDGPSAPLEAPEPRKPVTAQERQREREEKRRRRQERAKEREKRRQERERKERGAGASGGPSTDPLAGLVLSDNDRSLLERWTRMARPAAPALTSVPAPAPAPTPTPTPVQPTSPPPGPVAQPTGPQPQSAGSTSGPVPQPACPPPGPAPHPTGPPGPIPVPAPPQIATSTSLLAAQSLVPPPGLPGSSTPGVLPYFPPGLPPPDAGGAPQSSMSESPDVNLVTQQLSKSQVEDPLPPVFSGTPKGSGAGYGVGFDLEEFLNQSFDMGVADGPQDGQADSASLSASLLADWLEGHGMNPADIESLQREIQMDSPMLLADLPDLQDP
Chain of MET (cMet) (P08581 25-1390): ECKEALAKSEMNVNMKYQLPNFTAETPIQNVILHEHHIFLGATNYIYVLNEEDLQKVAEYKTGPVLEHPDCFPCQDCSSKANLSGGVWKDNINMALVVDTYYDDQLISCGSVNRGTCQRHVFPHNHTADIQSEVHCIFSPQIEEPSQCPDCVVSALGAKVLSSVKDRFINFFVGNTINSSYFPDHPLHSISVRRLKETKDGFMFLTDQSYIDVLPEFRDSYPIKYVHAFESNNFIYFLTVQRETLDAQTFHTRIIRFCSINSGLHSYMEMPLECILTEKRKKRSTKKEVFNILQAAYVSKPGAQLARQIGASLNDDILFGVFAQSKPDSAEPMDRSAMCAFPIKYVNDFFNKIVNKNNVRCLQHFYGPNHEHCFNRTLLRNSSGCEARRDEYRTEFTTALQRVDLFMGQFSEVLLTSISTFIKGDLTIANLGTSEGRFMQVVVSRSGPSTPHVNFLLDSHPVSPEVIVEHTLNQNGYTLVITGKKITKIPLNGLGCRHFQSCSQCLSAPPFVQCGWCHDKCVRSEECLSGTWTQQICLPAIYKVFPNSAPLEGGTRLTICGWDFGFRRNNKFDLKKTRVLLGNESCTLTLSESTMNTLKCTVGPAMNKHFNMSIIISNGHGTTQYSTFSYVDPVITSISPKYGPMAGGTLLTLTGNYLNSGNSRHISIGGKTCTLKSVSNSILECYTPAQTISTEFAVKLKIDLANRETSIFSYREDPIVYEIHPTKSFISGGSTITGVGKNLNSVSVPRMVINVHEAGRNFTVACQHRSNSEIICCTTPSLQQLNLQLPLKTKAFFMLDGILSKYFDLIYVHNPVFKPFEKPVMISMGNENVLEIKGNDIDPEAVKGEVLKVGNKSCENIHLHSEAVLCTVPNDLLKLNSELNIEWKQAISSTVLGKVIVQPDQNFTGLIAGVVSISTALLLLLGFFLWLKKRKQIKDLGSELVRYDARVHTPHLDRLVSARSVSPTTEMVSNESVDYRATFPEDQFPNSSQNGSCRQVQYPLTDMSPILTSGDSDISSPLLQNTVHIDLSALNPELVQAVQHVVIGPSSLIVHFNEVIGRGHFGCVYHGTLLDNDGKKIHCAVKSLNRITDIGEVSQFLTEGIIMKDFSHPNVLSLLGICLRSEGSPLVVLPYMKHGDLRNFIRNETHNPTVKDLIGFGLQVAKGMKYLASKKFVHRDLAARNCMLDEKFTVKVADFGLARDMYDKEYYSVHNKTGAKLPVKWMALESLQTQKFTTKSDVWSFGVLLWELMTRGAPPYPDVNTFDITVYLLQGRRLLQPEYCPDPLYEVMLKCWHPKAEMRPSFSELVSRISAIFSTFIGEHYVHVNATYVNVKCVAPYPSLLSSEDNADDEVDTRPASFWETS
Chain of LRRK2 (Q5S007 970-2527 limits assumed, species assumed): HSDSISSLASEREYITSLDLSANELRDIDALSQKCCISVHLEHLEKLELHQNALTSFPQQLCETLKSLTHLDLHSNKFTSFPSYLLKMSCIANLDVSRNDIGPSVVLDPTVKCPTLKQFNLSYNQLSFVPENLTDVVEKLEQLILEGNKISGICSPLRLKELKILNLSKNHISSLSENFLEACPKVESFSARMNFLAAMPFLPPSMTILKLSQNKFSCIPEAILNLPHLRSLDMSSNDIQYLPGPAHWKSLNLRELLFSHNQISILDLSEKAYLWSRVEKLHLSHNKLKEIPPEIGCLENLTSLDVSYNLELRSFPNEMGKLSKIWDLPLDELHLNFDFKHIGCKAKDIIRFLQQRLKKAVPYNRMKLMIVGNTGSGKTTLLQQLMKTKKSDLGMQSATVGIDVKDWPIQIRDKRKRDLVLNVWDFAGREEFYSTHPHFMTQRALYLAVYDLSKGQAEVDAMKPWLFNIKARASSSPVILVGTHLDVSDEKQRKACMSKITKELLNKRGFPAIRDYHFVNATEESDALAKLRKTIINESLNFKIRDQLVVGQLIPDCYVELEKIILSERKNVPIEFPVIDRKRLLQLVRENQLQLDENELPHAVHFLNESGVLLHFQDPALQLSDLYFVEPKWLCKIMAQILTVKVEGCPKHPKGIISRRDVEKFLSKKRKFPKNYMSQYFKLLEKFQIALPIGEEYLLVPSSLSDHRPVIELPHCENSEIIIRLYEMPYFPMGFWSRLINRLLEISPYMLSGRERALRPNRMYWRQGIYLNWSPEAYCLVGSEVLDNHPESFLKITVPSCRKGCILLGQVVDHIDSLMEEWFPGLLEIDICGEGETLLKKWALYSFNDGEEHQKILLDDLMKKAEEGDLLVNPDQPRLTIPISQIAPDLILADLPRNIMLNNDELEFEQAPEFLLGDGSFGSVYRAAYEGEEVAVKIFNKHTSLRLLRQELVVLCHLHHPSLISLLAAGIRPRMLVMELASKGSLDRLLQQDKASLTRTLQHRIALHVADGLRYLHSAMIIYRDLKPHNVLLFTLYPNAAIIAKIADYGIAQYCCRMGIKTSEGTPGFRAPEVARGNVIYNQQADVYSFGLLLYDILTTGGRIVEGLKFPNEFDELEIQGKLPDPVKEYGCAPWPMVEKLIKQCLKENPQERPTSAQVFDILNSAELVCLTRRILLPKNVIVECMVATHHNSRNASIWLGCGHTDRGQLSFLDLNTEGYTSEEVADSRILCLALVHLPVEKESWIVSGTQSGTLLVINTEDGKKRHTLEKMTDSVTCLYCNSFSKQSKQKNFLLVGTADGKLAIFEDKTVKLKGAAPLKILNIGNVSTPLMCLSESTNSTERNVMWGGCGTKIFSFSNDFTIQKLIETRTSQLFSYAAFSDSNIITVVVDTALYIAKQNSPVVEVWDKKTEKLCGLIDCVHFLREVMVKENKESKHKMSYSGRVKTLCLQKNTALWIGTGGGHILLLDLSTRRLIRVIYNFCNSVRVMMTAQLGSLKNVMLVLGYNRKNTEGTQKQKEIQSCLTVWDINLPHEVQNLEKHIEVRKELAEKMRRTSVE
Chain of EIF2AK2 (PKR) (P19525 whole entry): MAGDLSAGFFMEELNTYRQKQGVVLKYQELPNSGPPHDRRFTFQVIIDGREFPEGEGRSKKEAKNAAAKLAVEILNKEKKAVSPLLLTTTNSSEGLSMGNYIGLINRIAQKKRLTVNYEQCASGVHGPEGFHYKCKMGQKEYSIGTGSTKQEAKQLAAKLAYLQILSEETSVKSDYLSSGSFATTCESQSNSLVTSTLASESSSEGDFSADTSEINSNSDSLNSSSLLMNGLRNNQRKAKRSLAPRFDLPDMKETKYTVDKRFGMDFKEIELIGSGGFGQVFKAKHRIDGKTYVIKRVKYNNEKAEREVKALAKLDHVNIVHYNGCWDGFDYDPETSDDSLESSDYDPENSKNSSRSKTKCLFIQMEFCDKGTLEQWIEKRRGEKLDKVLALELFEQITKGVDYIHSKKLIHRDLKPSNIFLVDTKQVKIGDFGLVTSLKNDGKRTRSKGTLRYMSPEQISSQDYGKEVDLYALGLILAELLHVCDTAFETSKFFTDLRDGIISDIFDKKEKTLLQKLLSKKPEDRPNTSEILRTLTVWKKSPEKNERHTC
Chain of MARK3 (P27448 whole entry): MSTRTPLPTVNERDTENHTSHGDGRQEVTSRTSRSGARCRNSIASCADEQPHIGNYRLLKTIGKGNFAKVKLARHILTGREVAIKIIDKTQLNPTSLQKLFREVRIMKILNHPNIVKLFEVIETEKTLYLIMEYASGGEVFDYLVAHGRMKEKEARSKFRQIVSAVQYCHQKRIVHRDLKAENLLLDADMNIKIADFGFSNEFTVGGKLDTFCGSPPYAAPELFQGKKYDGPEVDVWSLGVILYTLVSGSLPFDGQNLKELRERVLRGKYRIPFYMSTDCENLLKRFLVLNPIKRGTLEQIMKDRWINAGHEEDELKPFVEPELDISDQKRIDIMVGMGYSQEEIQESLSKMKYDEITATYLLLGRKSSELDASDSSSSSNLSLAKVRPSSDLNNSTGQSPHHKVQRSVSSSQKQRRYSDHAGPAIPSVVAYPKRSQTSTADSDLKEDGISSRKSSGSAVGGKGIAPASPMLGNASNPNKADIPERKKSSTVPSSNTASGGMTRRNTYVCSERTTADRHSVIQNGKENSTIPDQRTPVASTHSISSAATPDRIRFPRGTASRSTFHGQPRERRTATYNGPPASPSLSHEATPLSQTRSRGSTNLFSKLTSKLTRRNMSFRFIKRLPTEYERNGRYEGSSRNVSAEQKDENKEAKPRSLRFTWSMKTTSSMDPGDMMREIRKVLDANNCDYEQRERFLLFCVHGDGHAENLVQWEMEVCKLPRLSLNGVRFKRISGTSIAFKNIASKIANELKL

## C#CCOc1ccc(Nc2ncc(Cl)c(Nc3ccccc3NC(=O)C=C)n2)c(OC)c1 [Compound 6]
[1]; [14]
  inhibition at 1 µM: 4%
[1]; MAPK7 (ERK5), 1 µM, ZLYTE, ATP Km app, listed as WEL028, 1 µM
  Inhibition at 1 µM (%): 3%
[1]; read-out: Inhibition at 1 µM (%), MAPK7 (ERK5), 1 µM, ZLYTE, ATP Km app
  inhibition at 1 µM: 4%
[2]; 1 μM WEL028, 1 h preincubation
  Inhibition (%): 4%
[2]; EIF2AK2 (PKR), 1 µM, LanthaScreen Binding, listed as WEL028, 1 µM
  Inhibition at 1 µM (%): 6% and 1%
[3]
  IC50: 50.1 nM
[3]; 1 h
  inhibition at 1 µM: 94%
[3]; [15]
  Apparent fold selectivity: 12 fold
[3]; read-out: Inhibition at 1 µM (%)
  inhibition at 1 µM: 94%
[4]; [14]
  inhibition at 1 µM: 7%
[4]
  Inhibition at 1 µM (%): 11%
[4]; listed as WEL028, 1 µM
  Inhibition at 1 µM (%): 4%
[5]; [14]
  inhibition at 1 µM: 6%
[5]; MARK3, 1 µM, ZLYTE, ATP Km app, listed as WEL028, 1 µM
  Inhibition at 1 µM (%): 8%
[5]; read-out: Inhibition at 1 µM (%), MARK3, 1 µM, ZLYTE, ATP Km app
  inhibition at 1 µM: 5%
[6]; 1 µM, ZLYTE, ATP Km app, listed as WEL028, 1 µM
  Inhibition at 1 µM (%): 0% and 10%
[6]; [14]
  inhibition at 1 µM: 5%
[7]
  IC50: 3.98 nM
[7]; [14]
  inhibition at 1 µM: 104%
[7]; [15]
  Apparent fold selectivity: 1 fold
[7]; read-out: Inhibition at 1 µM (%), MAP2K4 (MEK4), 1 µM, LanthaScreen Binding
  inhibition at 1 µM: 103%
[8]; [14]
  inhibition at 1 µM: -3%
[8]; ABL1, 1 µM, ZLYTE, ATP Km app, listed as WEL028, 1 µM
  Inhibition at 1 µM (%): -7% and 1%
[9]; 1 μM WEL028, 1 h preincubation
  Inhibition (%): -4%
[9]; MET (cMet), 1 µM, ZLYTE, ATP Km app, listed as WEL028, 1 µM
  Inhibition at 1 µM (%): 0% and -9%
[10]
  inhibition at 1 µM: -5%
[11]; 100 nM WEL028
  Increase in CD11b expression: 3%
  Percentage of CD11b-positive cells: minimally affected
[11]; 1 µM WEL028
  CD11b expression: completely failed to express CD11b
[11]; WEL028 100 nM
  CD11b-positive cells (%): 93.479% and 95.735% and 92.126%
[11]; WEL028 1 µM
  CD11b-positive cells (%): 19.047% and 18.635% and 20.613%
[12]; [14]
  inhibition at 1 µM: 20%
[12]; HUNK, 1 µM, LanthaScreen Binding, listed as WEL028, 1 µM
  Inhibition at 1 µM (%): 21%
[12]; read-out: Inhibition at 1 µM (%), HUNK, 1 µM, LanthaScreen Binding
  inhibition at 1 µM: 19%
[13]; [14]
  inhibition at 1 µM: 3%
[13]; read-out: Inhibition at 1 µM (%), NLK, 1 µM, LanthaScreen Binding
  inhibition at 1 µM: 4%
